These results are taken from PubChem BioAssay AID1117319 (Southern Research Institute, 2015).

Molecules are shown by their SMILES. Where “and” joins values, the source holds several entries; their conditions need not be identical. Equal values may be shown once. Inconclusive results are not listed.

The assay concerns the target Virion infectivity factor (Human immunodeficiency virus type 1 group M subtype B (isolate BH10)) + Virion infectivity factor (Human immunodeficiency virus type 1 group M subtype B (isolate BRU/LAI)) + Virion infectivity factor (Human immunodeficiency virus type 1 group M subtype B (isolate PCV12)) + Virion infectivity factor (Human immunodeficiency virus type 1 group M subtype B (isolate HXB2)) + DNA dC->dU-editing enzyme APOBEC-3G (Homo sapiens) (UniProt P69720+P69721+P69722+P69723+Q9HC16). In words: inhibitors of Vif binding to APOBEC3G peptide, primary screen, biochemical, TR-FRET, GST-Vif 1-94, biotin-A3G peptide, dose response retest (AID 1117319).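 Note: Vif residues 1-94 fused to GST binding biotinylated APOBEC3G peptide 110-148.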
Turning to `CCOc1ccccc1C(=O)NCC(=O)OCC(=O)NCCc1ccc(S(N)(=O)=O)cc1`, the IC50 – broadly, the concentration needed to halve the response being measured – was 75.8 µM.

Regarding `N=C1/C(=C\c2ccc(SCc3ccco3)o2)C(=O)N=C2SC=NN12`, the IC50 is 1.21 µM.

Turning to `O=C(NC1CCCC1)c1ccc2nc(-c3ccco3)c(-c3ccco3)nc2c1`, the IC50 was 0.3 µM.

For the compound `COc1ccc(N2CCN(C(=O)COc3ccccc3)CC2)cc1`, the IC50 was 76.9 µM.

Turning to `O=C(N/N=C/c1cccnc1)c1cc(O)c(O)c(O)c1`, the IC50 was 21.7 µM.

As for `CC1Cc2ccccc2N1Cc1cc(=O)n2ccsc2n1` (stereo not given), the IC50 was 7.03 µM.

On to `O=C(NCc1ccccn1)c1ccc2nc(-c3ccco3)c(-c3ccco3)nc2c1`, for which the IC50 was 0.45 µM.

For `O=c1ccc2c(-c3ccccc3S(=O)(=O)O)c3ccc(O)c(O)c3oc-2c1O`, the IC50 was 0.34 µM.

Consider `O=C(COc1ccccc1Cl)c1ccc[nH]1`, for which the IC50 is 2.91 µM.

As for `CN(CC(=O)Nc1c(Cl)cccc1Cl)C(=O)c1cccc(-n2cccc2)c1`, the half-maximal inhibitory concentration (IC50) was 31.3 µM.

Consider `COC(=O)CCC(=O)OC1(C)C(=O)C=C2C=C3CCCN3C=C2C1=O` (stereo not given), for which the IC50 was 2.23 µM.

`CCCCCC#CCC#CCC#CCC#CCCCC(=O)O`: the IC50 was 0.86 µM.

For the compound `CC(C)CN(C(=O)CN1CCN(c2ccc(O)cc2)CC1)c1c(N)n(CC(C)C)c(=O)[nH]c1=O`, the half-maximal inhibitory concentration (IC50) is 12.3 µM.

Regarding `Cn1c(N)c(C(=O)COC(=O)C2CCCCC2)c(=O)n(C)c1=O`, the 50% inhibitory concentration (IC50) was 92.9 µM.

As for `Cn1cccc1/C=C1\CCC/C(=C\c2cccn2C)C1=O`, the half-maximal inhibitory concentration (IC50) was 3.09 µM.

As to `CC1=C/C(=N\OS(=O)(=O)c2ccccc2)C=CC1=O`, the IC50 was 16.7 µM.

For the compound `N#C/C(=C/c1ccc(N2CCCCCC2)o1)c1cccc(F)c1`, the half-inhibitory concentration (IC50) was 24.6 µM.

`CCOC(=O)C1(C)NC(c2ccco2)C2C(=O)N(CC)C(=O)C21` (stereo not given): the IC50 was 99.2 µM.

With `CCN(CC)S(=O)(=O)c1cccc(C(=O)N/N=C/c2ccc(O)c(O)c2O)c1`, the IC50 was 3.48 µM.

For the compound `COc1ccc(Nc2ccc(OC)cc2)cc1`, the IC50 is 6.72 µM.

Consider `COc1cccc(C=Nc2cc(C(C)C)c(O)cc2C)c1O`, for which the IC50 was 34.2 µM.

As to `COC1=C(OC)C(=O)C(Sc2ccc3ccccc3c2)=CC1=O`, the IC50 is 8.68 µM.

`Cc1cc(O)c(-c2cc(O)c(C)cc2O)cc1O`: the IC50 is 8.44 µM.

As to `COc1ccc(NC(=O)c2cc(-c3ccco3)nc3ccccc23)cc1S(=O)(=O)N1CCOCC1`, the IC50 was 2.38 µM.

As for `C/C(N)=C(/C#N)C(=O)CSc1nnc(NC(C)C)s1`, the 50% inhibitory concentration (IC50) is 9.7 µM.

For the compound `O=S(=O)(c1ccc2nc(-c3ccco3)c(-c3ccco3)nc2c1)N1CCOCC1`, the IC50 was 6.38 µM and 3.81 µM.

Turning to `COc1ccc(N=C2S/C(=C\c3ccc(C)o3)C(=O)N2CC(C)C)cc1`, the IC50 was 39.7 µM.

Regarding `COc1cc(NC(=O)c2noc3c2CCC3)c(OC)cc1Cl`, the IC50 is 15.8 µM.

As to `Cc1cc(C)nc(N/N=C/C2=C(N3CCOCC3)C(=C\c3ccc(Cl)cc3)/CC2)n1`, the 50% inhibitory concentration (IC50) was 13.3 µM.

Take `O=S(=O)(O)c1cc(O)c2cc(Nc3ccccc3)ccc2c1`: the IC50 was 2.3 µM.

For `N=C(N)c1ccc(N=Nc2c(O)ccc3c2[nH]c2ccccc23)cc1`, the IC50 is 3.87 µM.

Take `CC(=C/C(=O)O)/C=C/c1ccc(Cl)o1`: the IC50 is 27.4 µM.

As to `Cc1cc(C)c(S(=O)(=O)NCC2CCC(C(=O)N3CCC4(CC3)OCCO4)CC2)c(C)c1` (stereo not given), the IC50 was 39.6 µM.

For `COC(=O)Cn1c(CCC(=O)O)ccc1-c1ccccc1`, the IC50 was 12.5 µM.

For `Cc1c(Br)c(O)c(Br)c2sc(=O)oc12`, the IC50 was 1.77 µM.

For `CC1(OC(=O)CCc2ccccc2)C(=O)C=C2C=C(c3ccsc3)OC=C2C1=O` (stereo not given), the 50% inhibitory concentration (IC50) was 4.73 µM.

As for `Cc1nc2ncccn2c1-c1csc(NCc2ccco2)n1`, the IC50 was 1.22 µM.

On to `CC(=O)c1ccc(NC(=O)CSc2nnc(-c3ccco3)c(-c3ccco3)n2)cc1`, for which the IC50 was 3.91 µM.

With `Cc1ccccc1NS(=O)(=O)c1ccc2[nH]cc(C(=O)N(C)Cc3ccco3)c(=O)c2c1`, the IC50 was 56.8 µM.

As for `COc1cccc(-c2nn(C)c3sc(C(=O)Nc4ccc5c(c4)OCCO5)cc23)c1`, the IC50 was 51.6 µM.

With `Cc1occc1-c1nnc(SCC(=O)N2CCN(c3ccccc3)CC2)n1C`, the IC50 is 56.8 µM.

In the case of `COC(=O)c1ccccc1NC(=O)C1CCCC1`, the IC50 is 0.55 µM.

On to `CC(=O)c1ccc2c(c1)C1C=CCC1C(C(=O)O)N2` (stereo not given), for which the IC50 was 0.6 µM.

As to `Cc1ccc(C(=O)C2=C(O)C(=O)N(c3ncccn3)C2c2ccc(F)cc2)o1` (stereo not given), the IC50 is 21.8 µM.

As to `O=C(Nc1ccc(F)cc1F)c1noc2c1CCC2`, the IC50 is 12.8 µM.

As for `O=C1CCCC2=C1C(c1ccco1)Nc1ccc3ccccc3c12` (stereo not given), the IC50 is 4.21 µM.

As for `C=CCN=c1scc(-c2ccco2)n1/N=C/c1ccc(O)c(O)c1O`, the IC50 is 1.38 µM.

For the compound `CCN(CC)Cc1cc(O)c(CN(CC)CC)cc1O`, the IC50 was 10.8 µM.

Regarding `CN(CCC#N)C(=O)COC(=O)c1c2c(nc3ccccc13)/C(=C\c1ccco1)CC2`, the IC50 was 1.66 µM.

In the case of `Cc1ccc2cc(CN(Cc3nnnn3Cc3ccco3)CC3CCCO3)c(=O)[nH]c2c1C` (stereo not given), the IC50 is 34.4 µM.

Regarding `O=c1cc(O)n(-c2ccc(F)cc2)c(=S)[nH]1`, the IC50 was 51.5 µM.

Consider `O=C1C(Cl)=C(N2CCCCC2)C(=O)C(Cl)=C1c1cnc(N2CCCCC2)s1`, for which the IC50 was 4.21 µM.

In the case of `Cc1cccc2c1c1ccc3c(c1n2C)C(=O)C=CC3=O`, the IC50 was 7.63 µM.

For the compound `NC(=O)c1c(NC(=O)c2ccc(S(=O)(=O)N3CCOCC3)cc2)sc2c1CCCCC2`, the IC50 was 98.3 µM.

`CC1=CC(C)(C)Nc2ccc(OC(=O)c3cccnc3)cc21`: the IC50 is 30.4 µM.

Take `CC(C)(Oc1ccc(Cl)cc1)C(=O)NCc1ccco1`: the IC50 is 43.1 µM.

For the compound `COc1cc(C2Nc3cccc4cccc(c34)N2)cc(OC)c1O`, the IC50 was less than 4.18 µM.

With `CCOC(=O)C1CCN(C(c2cccs2)c2sc3nc(C)nn3c2O)CC1` (stereo not given), the IC50 is 55.7 µM.

For `CN(CCO)c1cc(Sc2nc3ccccc3s2)c2nonc2c1[N+](=O)[O-]`, the IC50 was 42.6 µM.

For `Cc1noc(/C=C/c2ccco2)c1S(=O)(=O)N1CCC(C(=O)N2c3ccccc3CC2C)CC1` (stereo not given), the IC50 is 11.9 µM.

`O=C(/C=C/Nc1ccccc1Br)c1ccccn1`: the IC50 was 41.5 µM.

With `Cc1cc(C(=O)CSc2nnnn2C)c(C)n1CCc1ccc(Cl)cc1`, the IC50 was 29.4 µM.

In the case of `CCOc1ccc2[nH]c(=O)c(CN(Cc3nnnn3Cc3ccco3)C3CCCCC3)cc2c1`, the half-inhibitory concentration (IC50) is 4.82 µM.

In the case of `Cn1cnnc1SC/C(O)=C(\C#N)c1nc2ccccc2[nH]1`, the IC50 is 19.7 µM.

Consider `CN(C)C(CNC(=O)c1cccnc1Sc1ccccc1)c1ccco1` (stereo not given), for which the IC50 is 64 µM.

With `Oc1ccc(-c2cn3c(n2)SCC3)cc1O`, the concentration for half-maximal inhibition (IC50) was 1.11 µM.

In the case of `Cc1oc(/N=C/c2cccc3ccccc23)c(C#N)c1C`, the IC50 was 52.7 µM.

For the compound `O=S(=O)(Nc1nccs1)c1ccc(Nc2nnc(-c3ccccc3)c3ccccc23)cc1`, the 50% inhibitory concentration (IC50) is 84.3 µM.

As to `CN(C)c1ccc2cc(S(=O)(=O)O)cc(O)c2c1`, the IC50 is 10.2 µM.

Regarding `CC1OC(CC(=O)O)CC2=C1C(=O)c1c(O)cccc1C2=O` (stereo not given), the IC50 was 4.16 µM.

Turning to `Cn1c2ccccc2c2ccc3c(c21)C(=O)C=CC3=O`, the IC50 was 23.8 µM.

With `CC(C)(C)NC(=O)C(c1ccncc1)N(C(=O)CNC(=O)c1ccco1)c1ccc2c(c1)OCO2` (stereo not given), the IC50 was 11.3 µM.

`COC(=O)C1=C(C)NC(=O)/C1=C\c1cc(C)n(-c2ccccc2C)c1C`: the IC50 was 14.2 µM.

`NCCc1c[nH]c2ccccc12`: the IC50 is 1.66 µM.

With `Cc1ccc(C)n1-c1sccc1C(=O)O`, the IC50 was 1.92 µM.

In the case of `Oc1ccc(N=Cc2ccc(-c3cccs3)s2)cc1`, the IC50 is 0.92 µM.

Regarding `CN=c1scc(C)n1/N=C/c1ccc(O)c(O)c1O`, the IC50 was less than 1.84 µM.

As for `Cc1sc2ncnc(SCc3ccco3)c2c1C`, the IC50 is 28.2 µM.

For `CCC(C)(C)n1nnnc1C(c1cc2cc(C)ccc2[nH]c1=O)N1CCCc2ccccc21` (stereo not given), the IC50 was 93.5 µM.

Consider `Nc1ccc(N2CCN(CCCCN3C(=O)C4CCCN4C3=O)CC2)cc1` (stereo not given), for which the IC50 is 1.34 µM.

For `COc1ccc(OCCOC(=O)c2cccc(-n3cnnn3)c2)cc1`, the IC50 is 93.6 µM.

Turning to `Cc1c(C(=O)N2CCN(c3ccc(F)cc3)CC2)sc2nc(-c3ccccc3)cn12`, the IC50 was 48.7 µM.

With `CCOc1ccc(CNc2ccc(N3CCCC3)cc2)cc1`, the IC50 was 6.59 µM.

For `O=CN/C=C/c1cc(O)ccc1O`, the IC50 was 1.72 µM.

For `N#CC(C#N)=Cc1cccn1-c1ccc(C(=O)O)cc1`, the half-inhibitory concentration (IC50) is 10.3 µM.

Regarding `O=C(O)c1c2c(nc3ccc(Cl)cc13)CCC2`, the concentration for half-maximal inhibition (IC50) is 23.4 µM.

With `COC(=O)c1ccccc1-c1c2ccc(=N)cc-2oc2cc(N)ccc12`, the IC50 is 13.6 µM.

Turning to `O=C(O)COc1ccc2c(c1)O/C(=C\c1ccco1)C2=O`, the half-maximal inhibitory concentration (IC50) is 22.5 µM.

On to `O=C(O)CCCCC1CCSS1` (stereo not given), for which the IC50 was 7.67 µM.

In the case of `O=C1C(Cl)=C(Nc2ccc3cn[nH]c3c2)C(=O)c2ccccc21`, the IC50 is 3.58 µM.

With `CC(=O)Nc1ccc(S(=O)(=O)Nc2nc3ccccc3nc2Nc2ccc(N)cc2)cc1`, the IC50 is 0.62 µM.

Consider `Cc1ccc(-n2c(-c3cc(-c4ccco4)[nH]n3)n[nH]c2=S)c(Br)c1`, for which the IC50 was 6.39 µM.

For the compound `CCN(CC)C(=O)c1ccc2c(c1)C1C=CCC1C(C(=O)O)N2` (stereo not given), the IC50 is 2.81 µM.

For the compound `COc1cccc(NS(=O)(=O)c2ccc3c(c2)C2C=CCC2C(c2ccc(C(=O)O)cc2)N3)c1` (stereo not given), the IC50 was 3.32 µM.

As for `O=C1OC(c2ccc3ccccc3c2O)(c2ccc3ccccc3c2O)c2ccccc21`, the IC50 was 9.39 µM.

With `Cc1cc(C)cc(Nc2ccc(C(=O)O)cc2N)c1`, the IC50 was 26.1 µM.

`Cc1cc(-c2ccco2)n(-c2ccccc2)n1`: the IC50 is 50.4 µM.

Turning to `O=C(CSc1nnc(-c2ccco2)c(-c2ccco2)n1)Nc1ccccc1`, the IC50 was 3.12 µM.

For the compound `O=C1CCC/C(=N\NC(=O)c2ccc(COc3cccc4cccnc34)cc2)C1`, the IC50 was 17.1 µM.

For `O=c1oc2c(O)c(O)cc3c(=O)oc4c(O)c(O)cc1c4c23`, the IC50 was 0.45 µM.
